For 32 compounds, EC50 results are on record in patent publication US10118902B2 (Sanford Burnham Prebys Medical Discovery Institute, priority 2014, dated 2018).

The structures appear in SMILES notation.

neurotensin receptor 1 (NTR1), sequence (P30989 whole entry, species assumed): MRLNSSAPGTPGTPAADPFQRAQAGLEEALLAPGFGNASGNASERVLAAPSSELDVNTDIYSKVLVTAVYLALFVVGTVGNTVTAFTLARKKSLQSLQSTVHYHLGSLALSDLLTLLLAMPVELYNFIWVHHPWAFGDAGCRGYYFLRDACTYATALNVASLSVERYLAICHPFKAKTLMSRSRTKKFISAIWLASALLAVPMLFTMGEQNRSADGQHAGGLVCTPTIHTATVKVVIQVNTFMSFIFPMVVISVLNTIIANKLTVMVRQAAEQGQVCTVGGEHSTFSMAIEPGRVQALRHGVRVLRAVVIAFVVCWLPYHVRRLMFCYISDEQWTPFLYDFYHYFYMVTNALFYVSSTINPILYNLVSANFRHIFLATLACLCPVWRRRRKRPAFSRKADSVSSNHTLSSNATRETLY

The test has as its target neurotensin receptor 1 (NTR1) (Homo sapiens (Human), UniProt P30989). Briefly: NTR1 dose response, high-content imaging beta-arrestin-GFP assay in NTR1-U2OS cells. Format: cell-based. To be noted: read-out: EC50.
The term EC50 denotes the concentration at which the effect is half-maximal. Consider `COC1CCCCC1C1CCN(c2nc(C3(F)CC3)nc3ccc(N(C)CCO)cc23)CC1` (centres unmarked) [Example 189, 2-({2-(1-Fluoro-cyclopropyl)-4-[4-(2-methoxy-cyclohexyl)-piperidin-1-yl]-quinazolin-6-yl}-methyl-amino)-ethanol], for which the EC50 is more than 10000 nM.

Regarding `COc1ccsc1C1CCN(c2nc(C3CC3)nc3ccc(N(C)CCO)cc23)CC1` [Example 190, 2-({2-Cyclopropyl-4-[4-(3-methoxy-thiophen-2-yl)-piperidin-1-yl]-quinazolin-6-yl}-methyl-amino)-ethanol], the concentration for a half-maximal effect (EC50) was in the range of 2000 to 10000 nM.

As for `COc1ccccc1C1CCN(c2nc(C#CC3CC3)nc3ccc(N(C)CCO)cc23)CC1` [Example 191, 2-({2-Cyclopropylethynyl-4-[4-(2-methoxy-phenyl)-piperidin-1-yl]-quinazolin-6-yl}-methyl-amino)-ethanol], the EC50 was in the range of 2000 to 10000 nM.

For the compound `COc1ccccc1C1CCN(c2nc(OC3CCC3)nc3ccc(N(C)CCO)cc23)CC1` [Example 193, 2-((2-cyclobutoxy-4-(4-(2-methoxyphenyl)piperidin-1-yl)quinazolin-6-yl)(methyl)amino)ethanol], the EC50 lay in the range of 500 to 2000 nM.

In the case of `COc1ccccc1C1CCN(c2nc(C3CC3)nc3cnc(N(C)CCN4CCOCC4)cc23)CC1` [Example 194, 2-cyclopropyl-4-(4-(2-methoxyphenyl)piperidin-1-yl)-N-methyl-N-(2-morpholinoethyl)pyrido[3,4-d]pyrimidin-6-amine], the EC50 fell in the range of 500 to 2000 nM.

With `COc1ccccc1C1CCN(c2nc(C3(F)CC3)nc3cnc(N(C)CCO)cc23)CC1` [Example 195, 2-({2-(1-Fluoro-cyclopropyl)-4-[4-(2-methoxy-phenyl)-piperidin-1-yl]-pyrido[3,4-d]pyrimidin-6-yl}-methyl-amino)-ethanol], the EC50 was less than 500 nM.

On to `COc1ccccc1C1CCN(c2nc(C3(F)CC3)nc3cnc(N4CC[C@H](O)C4)cc23)CC1` [Example 196, 1-{2-(1-Fluoro-cyclopropyl)-4-[4-(2-methoxy-phenyl)-piperidin-1-yl]-pyrido[3,4-d]pyrimidin-6-yl}-pyrrolidin-3-ol], for which the 50% effective concentration (EC50) was 500 to 2000 nM.

With `COc1ccccc1C1CCN(c2nc(C3(F)CC3)nc3cnc(N4CC[C@@H](O)C4)cc23)CC1` [Example 197, 1-{2-(1-Fluoro-cyclopropyl)-4-[4-(2-methoxy-phenyl)-piperidin-1-yl]-pyrido[3,4-d]pyrimidin-6-yl}-pyrrolidin-3-ol], the EC50 was in the range of 500 to 2000 nM.

Take `COc1ccccc1C1CCN(c2nc(C3(F)CCC3)nc3cnc(N(C)CCO)cc23)CC1` [Example 198, 2-({2-(1-Fluoro-cyclobutyl)-4-[4-(2-methoxy-phenyl)-piperidin-1-yl]-pyrido[3,4-d]pyrimidin-6-yl}-methyl-amino)-ethanol]: the EC50 lay within 2000 to 10000 nM.

Consider `COc1ccccc1C1CCN(c2nc(C3(F)CCC3)nc3cnc(N4CC[C@@H](O)C4)cc23)CC1` [Example 199, 1-{2-(1-Fluoro-cyclobutyl)-4-[4-(2-methoxy-phenyl)-piperidin-1-yl]-pyrido[3,4-d]pyrimidin-6-yl}-pyrrolidin-3-ol], for which the EC50 lay in the range of 2000 to 10000 nM.

Consider `COc1ccccc1C1CCN(c2nc(C3(F)CCC3)nc3cnc(N4CC[C@H](O)C4)cc23)CC1` [Example 200, 1-{2-(1-Fluoro-cyclobutyl)-4-[4-(2-methoxy-phenyl)-piperidin-1-yl]-pyrido[3,4-d]pyrimidin-6-yl}-pyrrolidin-3-ol], for which the EC50 was 2000 to 10000 nM.

Turning to `COc1ccccc1C1CCN(c2nc(C3(F)CC3)nc3c(Cl)cc(N(C)CCO)cc23)CC1` [Example 201, 2-({8-Chloro-2-(1-fluoro-cyclopropyl)-4-[4-(2-methoxy-phenyl)-piperidin-1-yl]-quinazolin-6-yl}-methyl-amino)-ethanol], the EC50 was less than 500 nM.

For `COc1nccnc1C1CCN(c2nc(C3(C)CC3)nc3c(F)cc(N(C)CCO)cc23)CC1` [Example 204, 2-{[8-Fluoro-4-[4-(3-methoxy-pyrazin-2-yl)-piperidin-1-yl]-2-(1-methyl-cyclopropyl)-quinazolin-6-yl]-methyl-amino}-ethanol], the EC50 was in the range of 500 to 2000 nM.

Regarding `COc1nccnc1C1CCN(c2nc(C3(C)CC3)nc3ccc(N(C)CCO)cc23)CC1` [Example 205, 2-{[4-[4-(3-Methoxy-pyrazin-2-yl)-piperidin-1-yl]-2-(1-methyl-cyclopropyl)-quinazolin-6-yl]-methyl-amino}-ethanol], the EC50 is 500 to 2000 nM.

On to `COc1cccnc1C1CCN(c2nc(C3(F)CC3)nc3ccc(N(C)CCO)cc23)CC1` [Example 206, 2-{[2-(1-Fluoro-cyclopropyl)-4-(3-methoxy-3′,4′,5′,6′-tetrahydro-2′H-[2,4′]bipyridinyl-1′-yl)-quinazolin-6-yl]-methyl-amino}-ethanol], for which the EC50 is 500 to 2000 nM.

On to `COc1ncccc1C1CCN(c2nc(C3(F)CC3)nc3ccc(N(C)CCO)cc23)CC1` [Example 207, 2-{[2-(1-Fluoro-cyclopropyl)-4-(2-methoxy-3′,4′,5′,6′-tetrahydro-2′H-[3,4′]bipyridinyl-1′-yl)-quinazolin-6-yl]-methyl-amino}-ethanol], for which the EC50 lay within 500 to 2000 nM.

Regarding `COc1nccnc1C1CCN(c2nc(C3(F)CC3)nc3ccc(N(C)CCO)cc23)CC1` [Example 208, 2-({2-(1-Fluoro-cyclopropyl)-4-[4-(3-methoxy-pyrazin-2-yl)-piperidin-1-yl]-quinazolin-6-yl}-methyl-amino)-ethanol], the EC50 lay in the range of 500 to 2000 nM.

In the case of `COc1cccnc1N1CCN(c2nc(C3(F)CC3)nc3ccc(N(C)CCO)cc23)CC1` [Example 209, 2-({2-(1-Fluoro-cyclopropyl)-4-[4-(3-methoxy-pyridin-2-yl)-piperazin-1-yl]-quinazolin-6-yl}-methyl-amino)-ethanol], the EC50 lay within 2000 to 10000 nM.

Take `COc1ccncc1C1CCN(c2nc(C3(F)CC3)nc3ccc(N(C)CCO)cc23)CC1` [Example 210, 2-{[2-(1-Fluoro-cyclopropyl)-4-(4-methoxy-3′,4′,5′,6′-tetrahydro-2′H-[3,4′]bipyridinyl-1′-yl)-quinazolin-6-yl]-methyl-amino}-ethanol]: the 50% effective concentration (EC50) fell in the range of 2000 to 10000 nM.

Turning to `COc1cncnc1C1CCN(c2nc(C3(F)CC3)nc3ccc(N(C)CCO)cc23)CC1` [Example 211, 2-({2-(1-Fluoro-cyclopropyl)-4-[4-(5-methoxy-pyrimidin-4-yl)-piperidin-1-yl]-quinazolin-6-yl}-methyl-amino)-ethanol], the EC50 is more than 10000 nM.

As for `COc1cnccc1C1CCN(c2nc(C3(F)CC3)nc3ccc(N(C)CCO)cc23)CC1` [Example 212, 2-{[2-(1-Fluoro-cyclopropyl)-4-(3′-methoxy-3,4,5,6-tetrahydro-2H-[4,4′]bipyridinyl-1-yl)-quinazolin-6-yl]-methyl-amino}-ethanol], the EC50 is more than 10000 nM.

Turning to `COc1nccnc1C1CCN(c2nc(C3(F)CC3)nc3c(F)cc(N(C)CCO)cc23)CC1` [Example 213, 2-({8-Fluoro-2-(1-fluoro-cyclopropyl)-4-[4-(3-methoxy-pyrazin-2-yl)-piperidin-1-yl]-quinazolin-6-yl}-methyl-amino)-ethanol], the EC50 fell in the range of 500 to 2000 nM.

For the compound `COc1ncccc1C1CCN(c2nc(C3(F)CC3)nc3c(F)cc(N(C)CCO)cc23)CC1` [Example 214, 2-{[8-Fluoro-2-(1-fluoro-cyclopropyl)-4-(2-methoxy-3′,4′,5′,6′-tetrahydro-2′H-[3,4′]bipyridinyl-1′-yl)-quinazolin-6-yl]-methyl-amino}-ethanol], the half-maximal effective concentration (EC50) lay in the range of 500 to 2000 nM.

As for `COc1cccnc1N1CCN(c2nc(C3(F)CC3)nc3c(F)cc(N(C)CCO)cc23)CC1` [Example 215, 2-({8-Fluoro-2-(1-fluoro-cyclopropyl)-4-[4-(3-methoxy-pyridin-2-yl)-piperazin-1-yl]-quinazolin-6-yl}-methyl-amino)-ethanol], the EC50 lay within 500 to 2000 nM.

As to `COc1cccnc1C1CCN(c2nc(C3(F)CC3)nc3c(F)cc(N(C)CCO)cc23)CC1` [Example 216, 2-{[8-Fluoro-2-(1-fluoro-cyclopropyl)-4-(3-methoxy-3′,4′,5′,6′-tetrahydro-2′H-[2,4′]bipyridinyl-1′-yl)-quinazolin-6-yl]-methyl-amino}-ethanol], the EC50 lay within 2000 to 10000 nM.

For the compound `COc1cncnc1C1CCN(c2nc(C3(F)CC3)nc3c(F)cc(N(C)CCO)cc23)CC1` [Example 217, 2-({8-Fluoro-2-(1-fluoro-cyclopropyl)-4-[4-(5-methoxy-pyrimidin-4-yl)-piperidin-1-yl]-quinazolin-6-yl}-methyl-amino)-ethanol], the EC50 is more than 10000 nM.

As to `COc1cc(I)ccc1C1CCN(c2nc(C3(F)CC3)nc3ccc(N(C)CCO)cc23)CC1` [Example 218], the EC50 was more than 10000 nM.

Take `COc1nccnc1C1CCN(c2nc(C3(CF)CC3)nc3ccc(N(C)CCO)cc23)CC1` [Example 219, 2-({2-(1-Fluoromethyl-cyclopropyl)-4-[4-(3-methoxy-pyrazin-2-yl)-piperidin-1-yl]-quinazolin-6-yl}-methyl-amino)-ethanol]: the EC50 fell in the range of 500 to 2000 nM.

As to `COc1nccnc1C1CCN(c2nc(C3(O)CCC3)nc3ccc(N(C)CCO)cc23)CC1` [Example 221, 1-(6-((2-hydroxyethyl)(methyl)amino)-4-(4-(3-methoxypyrazin-2-yl)piperidin-1-yl)quinazolin-2-yl)cyclobutanol], the EC50 is more than 10000 nM.

On to `CN(CCOCCF)c1ccc2nc(C3(F)CC3)nc(N3CCC(c4ccccc4OCCF)CC3)c2c1` [Example 222, (2-(1-Fluoro-cyclopropyl)-4-{4-[2-(2-fluoro-ethoxy)-phenyl]-piperidin-1-yl}-quinazolin-6-yl)-[2-(2-fluoro-ethoxy)-ethyl]-methyl-amine], for which the EC50 was 2000 to 10000 nM.

`COc1ccccc1C1CCN(c2nc(C3(F)CC3)nc3ccc(N(C)CCOCCF)cc23)CC1` [Example 223, {2-(1-Fluoro-cyclopropyl)-4-[4-(2-methoxy-phenyl)-piperidin-1-yl]-quinazolin-6-yl}-[2-(2-fluoro-ethoxy)-ethyl]-methyl-amine]: the EC50 lay within 500 to 2000 nM.

Regarding `CN(CCO[Si](C)(C)C(C)(C)C)c1ccc2nc(C3(F)CC3)nc(N3CCC(c4ccccc4O)CC3)c2c1` [Example 224, 2-{1-[6-{[2-(tert-Butyl-dimethyl-silanyloxy)-ethyl]-methyl-amino}-2-(1-fluoro-cyclopropyl)-quinazolin-4-yl]-piperidin-4-yl}-phenol], the EC50 was 2000 to 10000 nM.
